Laboratory results published in patent publication US10080739B2, “Aryl imidazoles and their use as anti-cancer agents” (Aptose Biosciences Inc., priority 2003, dated 2018).
Entries after “also recorded” stand apart in the source; their conditions may differ.

Legend:
[1] = tested on: HT-29 colon adenocarcinoma cells; assay: cell cycle analysis by flow cytometry; format: cell-based, human; settings: HT-29 cells starved 3 days, 15 μM or 25 μM for 24 or 48 hours, 10% serum
Protocol: The effect of treatment with compound 45 on cell cycle progression in HT-29 colon adenocarcinoma cells was examined by flow cytometry (FIG. 22). Values were determined by gate analysis of flow cytometric plots and are presented in FIG. 22 as a percentage of the total cell population, after eliminating doubles. Apoptotic events inferred by the surface area preceding G1 phase. Cells were starved for 3 days, and treated with 15 μM or 25 μM compound 45 for 24 or 48 hours in the presence of 10% serum, followed by flow cytometric analysis.

[2] = tested on: HT29 colon adenocarcinoma cells; assay: morphological changes (vacuoles), HT29; format: cell-based, human; settings: treatment for 24 hours
Text: These vacuoles are not formed in DMSO- or doxorubicin-treated cells. Moreover, the nuclear membrane is no longer evident in the phase-contrast images of cells treated with compound 45, even though the nucleus is still intact, as shown by DAPI staining.

Ax1 = biological target: T1, Ax1 (Homo sapiens, UniProt P30530); assay: kinase profiler, Ax1; format: biochemical; settings: 10 μM compound, 100 μM ATP, mean of % control
T1 construct: purchased Upstate Biotechnologies (kinase profiler service)
Protocol: (§1) Compound 45 was tested for its ability to function as a kinase inhibitor using the kinase profiler service from Upstate Biotechnologies. The general protocol employed is as follows: recombinant kinases were incubated with specific substrates, 10 mM MgAcetate, and [γ-^33P-ATP]. The reaction was initiated by the addition of MgATP mix. After incubation at room temperature for 40 minutes, the reaction was stopped by the addition of 5 μl of a 3% phosphoric acid solution. 10 μl of the reaction was then spotted on to a P30 filtermat and washed 3 times for 5 min. in 75 mM phosphoric acid and once in methanol prior to drying and scintillation counting. Each reaction was performed in duplicate with 100 μM ATP −/+10 μM compound 45. Results are presented in Table IV and are expressed as the mean of % control (no compound). PI 3-kinase-γ (PI3K-γ) activity was determined with the PIProfiler™ assay, which measures the binding of the GRP1 pleckstrin homology (PH) domain to PIP3, the product of PI3K acting on its physiological substrate PIP2.

BRK = biological target: T2, BRK (Homo sapiens, UniProt Q13882); assay: kinase profiler, BRK; format: biochemical; settings: 10 μM compound, 100 μM ATP, mean of % control
T2 construct: purchased Upstate Biotechnologies (kinase profiler service)
Protocol: as §1

CaMKII = assay: kinase profiler, CaMKII; format: biochemical, human; settings: 10 μM compound, 100 μM ATP, mean of % control
Protocol: as §1

CaMKIV = biological target: T3, CaMKIV (Homo sapiens, UniProt Q16566); assay: kinase profiler, CaMKIV; format: biochemical; settings: 10 μM compound, 100 μM ATP, mean of % control
T3 construct: purchased Upstate Biotechnologies (kinase profiler service)
Protocol: as §1

CDK2/cyclinE = biological target: T4, CDK2/cyclinE (Homo sapiens, UniProt P24941); assay: kinase profiler, CDK2/cyclinE; format: biochemical; settings: 10 μM compound, 100 μM ATP, mean of % control
T4 construct: purchased Upstate Biotechnologies (kinase profiler service)
Protocol: as §1

EphA2 = biological target: T5, EphA2 (Homo sapiens, UniProt P29317); assay: kinase profiler, EphA2; format: biochemical; settings: 10 μM compound, 100 μM ATP, mean of % control
T5 construct: purchased Upstate Biotechnologies (kinase profiler service)
Protocol: as §1

EphB4 = biological target: T6, EphB4 (Homo sapiens, UniProt P54760); assay: kinase profiler, EphB4; format: biochemical; settings: 10 μM compound, 100 μM ATP, mean of % control
T6 construct: purchased Upstate Biotechnologies (kinase profiler service)
Protocol: as §1

IGF-1R = biological target: T7, IGF-1R (Homo sapiens, UniProt P08069); assay: kinase profiler, IGF-1R; format: biochemical; settings: 10 μM compound, 100 μM ATP, mean of % control
T7 construct: purchased Upstate Biotechnologies (kinase profiler service)
Protocol: as §1

IKKβ = biological target: T8, IKKβ (Homo sapiens, UniProt O14920); assay: kinase profiler, IKKβ; format: biochemical; settings: 10 μM compound, 100 μM ATP, mean of % control
T8 construct: purchased Upstate Biotechnologies (kinase profiler service)
Protocol: as §1

JNK3 = biological target: T9, JNK3 (Homo sapiens, UniProt P53779); assay: kinase profiler, JNK3; format: biochemical; settings: 10 μM compound, 100 μM ATP, mean of % control
T9 construct: purchased Upstate Biotechnologies (kinase profiler service)
Protocol: as §1

MAPK2 = biological target: T10, MAPK2 (Homo sapiens, UniProt P28482); assay: kinase profiler, MAPK2; format: biochemical; settings: 10 μM compound, 100 μM ATP, mean of % control
T10 construct: purchased Upstate Biotechnologies (kinase profiler service)
Protocol: as §1

MINK = biological target: T11, MINK (Homo sapiens, UniProt Q8N4C8); assay: kinase profiler, MINK; format: biochemical; settings: 10 μM compound, 100 μM ATP, mean of % control
T11 construct: purchased Upstate Biotechnologies (kinase profiler service)
Protocol: as §1

MKK6 = biological target: T12, MKK6 (Homo sapiens, UniProt P52564); assay: kinase profiler, MKK6; format: biochemical; settings: 10 μM compound, 100 μM ATP, mean of % control
T12 construct: purchased Upstate Biotechnologies (kinase profiler service)
Protocol: as §1

MSK1 = biological target: T13, MSK1 (Homo sapiens, UniProt O75582); assay: kinase profiler, MSK1; format: biochemical; settings: 10 μM compound, 100 μM ATP, mean of % control
T13 construct: purchased Upstate Biotechnologies (kinase profiler service)
Protocol: as §1

p70S6K = assay: kinase profiler, p70S6K; format: biochemical, human; settings: 10 μM compound, 100 μM ATP, mean of % control
Protocol: as §1

PAR-1Bα = biological target: T14, PAR-1Bα (Homo sapiens, UniProt Q7KZI7); assay: kinase profiler, PAR-1Bα; format: biochemical; settings: 10 μM compound, 100 μM ATP, mean of % control
T14 construct: purchased Upstate Biotechnologies (kinase profiler service)
Protocol: as §1

PI 3-kinase-γ (PI3K-γ) = biological target: T15, PI 3-kinase-γ (PI3K-γ) (Homo sapiens, UniProt P48736); assay: PIProfiler assay, PI3K-γ; format: biochemical; settings: PI3K[…] (PI3Kγ), 10 μM compound, mean of % control
T15 construct: purchased Upstate Biotechnologies (kinase profiler / PIProfiler service)
Protocol: as §1

PI3K-β = biological target: T16, PI3K-β (Homo sapiens, UniProt P42338); assay: kinase profiler, PI3K-β; format: biochemical; settings: 10 μM compound, mean of % control
T16 construct: purchased Upstate Biotechnologies (kinase profiler service)

PKCα = biological target: T17, PKCα (Homo sapiens, UniProt P17252); assay: kinase profiler, PKCα; format: biochemical; settings: 10 μM compound, 100 μM ATP, mean of % control
T17 construct: purchased Upstate Biotechnologies (kinase profiler service)
Protocol: as §1

PRK2 = biological target: T18, PRK2 (Homo sapiens, UniProt Q16513); assay: kinase profiler, PRK2; format: biochemical; settings: 10 μM compound, 100 μM ATP, mean of % control
T18 construct: purchased Upstate Biotechnologies (kinase profiler service)
Protocol: as §1

Ret = biological target: T19, Ret (Homo sapiens, UniProt P07949); assay: kinase profiler, Ret; format: biochemical; settings: 10 μM compound, 100 μM ATP, mean of % control
T19 construct: purchased Upstate Biotechnologies (kinase profiler service)
Protocol: as §1

ROCK-II = biological target: T20, ROCK-II (Homo sapiens, UniProt O75116); assay: kinase profiler, ROCK-II; format: biochemical; settings: 10 μM compound, 100 μM ATP, mean of % control
T20 construct: purchased Upstate Biotechnologies (kinase profiler service)
Protocol: as §1

SAPK4 = biological target: T21, SAPK4 (Homo sapiens, UniProt O15264); assay: kinase profiler, SAPK4; format: biochemical; settings: 10 μM compound, 100 μM ATP, mean of % control
T21 construct: purchased Upstate Biotechnologies (kinase profiler service)
Protocol: as §1

T2 sequence (Q13882 whole entry): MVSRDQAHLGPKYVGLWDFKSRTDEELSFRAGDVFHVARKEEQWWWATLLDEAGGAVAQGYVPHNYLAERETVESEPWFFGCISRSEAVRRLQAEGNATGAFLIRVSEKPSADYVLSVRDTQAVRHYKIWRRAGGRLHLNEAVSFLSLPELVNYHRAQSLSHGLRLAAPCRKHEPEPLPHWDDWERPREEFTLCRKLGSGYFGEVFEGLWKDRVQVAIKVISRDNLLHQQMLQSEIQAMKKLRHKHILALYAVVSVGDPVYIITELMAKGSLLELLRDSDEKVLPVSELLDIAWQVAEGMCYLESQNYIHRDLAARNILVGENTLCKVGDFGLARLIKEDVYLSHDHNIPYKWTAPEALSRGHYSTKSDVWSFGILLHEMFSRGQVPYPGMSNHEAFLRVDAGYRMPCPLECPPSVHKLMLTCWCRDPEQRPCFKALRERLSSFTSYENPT
T12 sequence (P52564 whole entry): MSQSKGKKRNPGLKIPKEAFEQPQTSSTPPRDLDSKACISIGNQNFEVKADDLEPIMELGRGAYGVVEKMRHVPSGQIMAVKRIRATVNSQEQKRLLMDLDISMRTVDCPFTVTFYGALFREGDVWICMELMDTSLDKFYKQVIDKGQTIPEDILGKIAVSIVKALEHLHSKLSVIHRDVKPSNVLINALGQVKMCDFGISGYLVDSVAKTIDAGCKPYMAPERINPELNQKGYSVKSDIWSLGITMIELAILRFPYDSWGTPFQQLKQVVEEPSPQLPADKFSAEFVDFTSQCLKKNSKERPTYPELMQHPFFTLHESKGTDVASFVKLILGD
T7 sequence (P08069 31-1367): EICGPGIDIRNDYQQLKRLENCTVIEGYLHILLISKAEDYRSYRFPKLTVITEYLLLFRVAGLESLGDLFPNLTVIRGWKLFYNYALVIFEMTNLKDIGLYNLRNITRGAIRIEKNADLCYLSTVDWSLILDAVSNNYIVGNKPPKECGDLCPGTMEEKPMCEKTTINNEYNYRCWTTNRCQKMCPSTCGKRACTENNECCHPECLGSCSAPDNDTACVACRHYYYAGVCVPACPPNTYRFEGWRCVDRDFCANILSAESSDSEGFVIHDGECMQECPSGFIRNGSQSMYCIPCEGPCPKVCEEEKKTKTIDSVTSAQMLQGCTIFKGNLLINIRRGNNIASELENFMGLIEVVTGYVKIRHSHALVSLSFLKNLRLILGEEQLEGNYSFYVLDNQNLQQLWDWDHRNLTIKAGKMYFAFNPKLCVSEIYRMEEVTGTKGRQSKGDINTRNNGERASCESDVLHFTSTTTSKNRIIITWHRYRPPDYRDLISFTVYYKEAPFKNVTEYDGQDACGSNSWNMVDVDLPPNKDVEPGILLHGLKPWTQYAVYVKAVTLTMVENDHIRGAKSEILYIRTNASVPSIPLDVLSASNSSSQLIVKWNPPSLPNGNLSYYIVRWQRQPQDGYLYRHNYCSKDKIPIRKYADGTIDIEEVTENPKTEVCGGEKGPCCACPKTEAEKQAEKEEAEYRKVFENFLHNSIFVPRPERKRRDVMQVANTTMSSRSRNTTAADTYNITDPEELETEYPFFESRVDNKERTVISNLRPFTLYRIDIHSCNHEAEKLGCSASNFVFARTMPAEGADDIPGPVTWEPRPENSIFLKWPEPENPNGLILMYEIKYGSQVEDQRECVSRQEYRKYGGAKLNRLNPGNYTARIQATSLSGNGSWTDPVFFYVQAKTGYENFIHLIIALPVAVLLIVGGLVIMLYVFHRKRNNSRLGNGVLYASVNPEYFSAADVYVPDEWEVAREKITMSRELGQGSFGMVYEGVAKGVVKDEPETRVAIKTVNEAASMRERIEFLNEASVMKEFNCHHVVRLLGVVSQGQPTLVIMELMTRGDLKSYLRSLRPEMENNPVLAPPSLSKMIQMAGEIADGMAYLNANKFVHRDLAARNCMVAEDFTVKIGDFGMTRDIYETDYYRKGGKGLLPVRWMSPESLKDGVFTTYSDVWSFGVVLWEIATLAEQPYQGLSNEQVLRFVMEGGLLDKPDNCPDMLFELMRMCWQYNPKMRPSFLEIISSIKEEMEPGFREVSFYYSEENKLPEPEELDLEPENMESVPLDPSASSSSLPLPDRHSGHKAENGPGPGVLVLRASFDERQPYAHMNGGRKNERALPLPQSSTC
T21 sequence (O15264 whole entry): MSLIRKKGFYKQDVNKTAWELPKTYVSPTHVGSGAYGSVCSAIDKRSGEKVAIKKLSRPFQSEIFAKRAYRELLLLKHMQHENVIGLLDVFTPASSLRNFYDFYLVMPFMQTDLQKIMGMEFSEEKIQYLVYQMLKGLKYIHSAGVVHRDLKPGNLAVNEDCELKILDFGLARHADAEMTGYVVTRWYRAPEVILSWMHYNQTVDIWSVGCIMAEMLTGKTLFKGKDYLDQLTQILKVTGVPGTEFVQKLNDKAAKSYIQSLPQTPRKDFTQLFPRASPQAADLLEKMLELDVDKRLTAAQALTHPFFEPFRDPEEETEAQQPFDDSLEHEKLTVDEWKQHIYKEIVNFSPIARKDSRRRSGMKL
T20 sequence (O75116 whole entry): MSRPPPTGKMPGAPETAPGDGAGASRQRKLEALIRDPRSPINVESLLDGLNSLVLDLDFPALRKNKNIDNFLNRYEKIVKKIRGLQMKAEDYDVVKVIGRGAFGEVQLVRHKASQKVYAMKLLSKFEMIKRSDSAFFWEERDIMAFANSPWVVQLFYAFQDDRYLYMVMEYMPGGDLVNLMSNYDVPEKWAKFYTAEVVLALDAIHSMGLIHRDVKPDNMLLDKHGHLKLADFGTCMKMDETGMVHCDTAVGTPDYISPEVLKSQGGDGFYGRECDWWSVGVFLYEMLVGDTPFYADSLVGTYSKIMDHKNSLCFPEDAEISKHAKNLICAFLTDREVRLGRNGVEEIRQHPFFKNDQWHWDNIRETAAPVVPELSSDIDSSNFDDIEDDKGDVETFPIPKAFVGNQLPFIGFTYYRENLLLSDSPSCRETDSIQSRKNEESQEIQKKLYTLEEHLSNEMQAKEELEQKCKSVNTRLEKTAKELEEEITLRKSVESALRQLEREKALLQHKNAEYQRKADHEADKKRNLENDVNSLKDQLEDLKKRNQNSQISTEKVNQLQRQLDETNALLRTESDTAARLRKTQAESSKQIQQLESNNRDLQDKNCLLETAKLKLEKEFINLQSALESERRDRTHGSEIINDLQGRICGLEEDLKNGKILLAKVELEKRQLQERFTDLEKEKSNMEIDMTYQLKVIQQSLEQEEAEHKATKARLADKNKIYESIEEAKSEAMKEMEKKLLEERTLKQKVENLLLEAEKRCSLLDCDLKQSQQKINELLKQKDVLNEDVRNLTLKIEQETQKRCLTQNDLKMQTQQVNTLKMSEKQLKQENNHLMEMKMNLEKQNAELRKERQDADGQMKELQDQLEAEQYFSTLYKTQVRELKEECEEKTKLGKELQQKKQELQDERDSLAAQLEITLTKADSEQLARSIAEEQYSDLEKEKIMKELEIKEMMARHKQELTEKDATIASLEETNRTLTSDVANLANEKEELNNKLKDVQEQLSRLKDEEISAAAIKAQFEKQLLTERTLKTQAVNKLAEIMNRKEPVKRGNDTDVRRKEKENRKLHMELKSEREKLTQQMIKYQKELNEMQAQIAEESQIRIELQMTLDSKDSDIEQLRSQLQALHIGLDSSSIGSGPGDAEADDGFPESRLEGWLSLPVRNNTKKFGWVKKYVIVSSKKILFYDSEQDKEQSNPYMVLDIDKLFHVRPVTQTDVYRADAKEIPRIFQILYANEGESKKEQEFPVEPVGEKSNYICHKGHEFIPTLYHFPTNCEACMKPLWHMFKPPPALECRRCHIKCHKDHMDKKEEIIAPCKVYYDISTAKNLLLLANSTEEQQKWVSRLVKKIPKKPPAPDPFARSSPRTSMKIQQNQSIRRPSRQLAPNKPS
T8 sequence (O14920 whole entry): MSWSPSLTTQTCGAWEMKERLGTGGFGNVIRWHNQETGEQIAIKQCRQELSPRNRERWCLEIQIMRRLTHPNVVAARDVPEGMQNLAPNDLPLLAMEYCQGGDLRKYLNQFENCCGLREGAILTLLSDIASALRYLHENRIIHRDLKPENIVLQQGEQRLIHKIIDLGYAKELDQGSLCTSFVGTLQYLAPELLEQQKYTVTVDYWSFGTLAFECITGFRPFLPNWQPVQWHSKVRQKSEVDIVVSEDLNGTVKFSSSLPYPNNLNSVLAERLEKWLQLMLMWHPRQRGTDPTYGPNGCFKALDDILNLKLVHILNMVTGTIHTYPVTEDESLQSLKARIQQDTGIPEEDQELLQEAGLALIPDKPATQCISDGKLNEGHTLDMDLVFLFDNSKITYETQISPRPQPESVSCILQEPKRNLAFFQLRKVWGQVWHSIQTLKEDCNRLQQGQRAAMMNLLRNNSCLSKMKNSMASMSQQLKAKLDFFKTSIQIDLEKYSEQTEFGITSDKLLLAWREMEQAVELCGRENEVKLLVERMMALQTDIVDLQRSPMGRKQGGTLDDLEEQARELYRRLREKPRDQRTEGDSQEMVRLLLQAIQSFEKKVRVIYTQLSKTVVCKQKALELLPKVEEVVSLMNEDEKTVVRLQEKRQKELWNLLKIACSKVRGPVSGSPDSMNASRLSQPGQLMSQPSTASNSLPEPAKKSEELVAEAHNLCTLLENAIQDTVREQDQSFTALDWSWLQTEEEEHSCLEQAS
T10 sequence (P28482 whole entry): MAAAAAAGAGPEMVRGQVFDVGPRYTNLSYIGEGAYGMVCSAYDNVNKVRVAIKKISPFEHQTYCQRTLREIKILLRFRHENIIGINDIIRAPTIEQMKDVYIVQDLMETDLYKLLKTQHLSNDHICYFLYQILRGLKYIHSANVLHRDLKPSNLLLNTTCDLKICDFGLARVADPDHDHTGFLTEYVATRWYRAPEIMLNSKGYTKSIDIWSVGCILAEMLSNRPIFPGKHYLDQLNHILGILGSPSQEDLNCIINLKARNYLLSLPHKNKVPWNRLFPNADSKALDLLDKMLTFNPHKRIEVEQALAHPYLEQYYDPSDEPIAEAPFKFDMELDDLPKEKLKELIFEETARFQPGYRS

Brc1ccc2[nH]cc(-c3nc4c5ccccc5c5ccccc5c4[nH]3)c2c1 [Compound 45]
effect on cell cycle progression [1]: increase of cells in the G1 phase and a decrease in the S and G2/M phases; also recorded: partial arrest in the G0/G1 phase | formation of vacuoles [2]: formation of large vacuoles within the cytoplasm | activity at 10 µM (Ax1): 100% | activity at 10 µM (BRK): 112% | % activity (CaMKII): 32% | activity at 10 µM (CaMKIV): 98% | activity at 10 µM (CDK2/cyclinE): 117% | activity at 10 µM (EphA2): 95% | activity at 10 µM (EphB4): 95% | activity at 10 µM (IGF-1R): 80% | activity at 10 µM (IKKβ): 111% | activity at 10 µM (JNK3): 121% | activity at 10 µM (MAPK2): 99% | activity at 10 µM (MINK): 91% | activity at 10 µM (MKK6): 86% | activity at 10 µM (MSK1): 76% | % activity (p70S6K): 64% | activity at 10 µM (PAR-1Bα): 88% | activity at 10 µM (PI 3-kinase-γ (PI3K-γ)): 22% | activity at 10 µM (PI3K-β): 11% | activity at 10 µM (PKCα): 92% | activity at 10 µM (PRK2): 83% | activity at 10 µM (Ret): 82% | activity at 10 µM (ROCK-II): 86% | activity at 10 µM (SAPK4): 77%
